According to patent publication US10662164B2, “Non-beta lactam antibiotics” (University of Notre Dame du Lac, priority 2014, dated 2020):
Converted amounts (≈) assume the structure as drawn. Read-outs that look alike come from different tables or passages of the source.

Assays:
[1] = tested on: S. aureus NRS120; assay: MIC determination; type: cell-based; conditions: Staphylococcus aureus
[2] = tested on: B. licheniformis ATCC 12759; assay: MIC determination; type: cell-based; conditions: Bacillus licheniformis, ATCC12759
[3] = tested on: E. faecalis 99 (Van R); assay: MIC determination; type: cell-based; conditions: Enterococcus faecalis; vancomycin-resistant clinical isolate; Tables 1 and 5
[4] = tested on: E. faecalis ATCC 29212; assay: MIC determination; type: cell-based; conditions: Enterococcus faecalis, ATCC29212
[5] = tested on: S. aureus VRS2; assay: MIC determination; type: cell-based; conditions: Staphylococcus aureus
[6] = tested on: S. aureus NRS119; assay: MIC determination; type: cell-based; conditions: Staphylococcus aureus
[7] = tested on: E. faecium 119-39A (Van S); assay: MIC determination; type: cell-based; conditions: Enterococcus faecium
Summary of the method: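 MIC determined by a previously reported procedure against ATCC reference strains and resistant clinical isolates, including vancomycin-resistant E. faecium 106 and S. aureus VRS1.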

[8] = Full PK study; type: in vivo, mouse; conditions: compound 1, oral; dose not given
[9] = tested on: S. aureus ATCC 277660; assay: Minimal-bactericidal concentration (MBC) determination; type: cell-based, Staphylococcus aureus
Protocol: (§1) The MBC of compound 75b was determined using S. aureus ATCC 29213, S. aureus […], and E. faecium NCTC 7171.
(§2) The MBC of indolyl antibiotic 75b was determined by incubation of 1.5×10^5 cells of S. aureus ATCC29213, S. aureus ATCC 27660, and E. faecium NCTC7171 at MIC, 2×MIC, and 4×MIC. Aliquots of 10 μL (corresponding to 1.5×10^4 cells) were plated on agar plates, incubated for 48 h, and colonies were counted in the presence and absence of […].

[10] = tested on: S. aureus ATCC 29213; assay: as above; type: cell-based, Staphylococcus aureus; conditions: MSSA strain
Protocol: as §1, §2

[11] = tested on: E. faecium NCTC 7171; assay: as above; type: cell-based, Enterococcus faecium
Protocol: as §1, §2

[12] = Full PK study; type: in vivo, mouse
Protocol: A full PK study was conducted with indole 75b after iv and oral (po) administration. This compound had the lowest in vitro toxicity and the highest efficacy in the mouse peritonitis infection model.
Female ICR mice (6-8 weeks old, ˜20-g body weight) were used for the PK and peritonitis studies. Animals were purchased from Harlan Laboratories, Inc. (Indianapolis, Ind., USA) and given Teklad 2019 Extruded Rodent Diet and water ad libitum. Mice were maintained in polycarbonate shoebox cages with ¼″ corncob (The Andersons Inc., Maumee, Ohio) and Alpha-dri (Sheperd Specialty Papers, Inc., Richland, Mich.) bedding under 12-h light/12-h dark cycle at 72±2° F.
Antibiotic 75b was dissolved in 10% DMSO/25% Tween-80/65% water at a concentration of 5 mg/mL. Mice (n=3 per time point per route of administration) were administered 100 μL of 75b (equivalent to 20 mg/kg) iv. A separate group of mice was given 100 μL of 75b (equivalent to 20 mg/kg) orally (po). Terminal blood was collected in heparin by cardiac puncture at 2, 5, 10, 20, and 40 min, and at 1, 2, 3, 4, 8, and 24 h after iv administration and at 0.5, 1, 2, 3, 4, 6, 9, 24, and 36 h after po administration. Blood was centrifuged at 1200 g for 10 min to obtain plasma. Plasma samples were stored at −80° C. until analysis.
Plasma ([…], aliquot) was mixed with 100 μL of acetonitrile containing internal standard (final concentration 8 μg/mL). After centrifugation at 10000 g for 10 min, the supernatant was analyzed by ultraperformance liquid chromatography (UPLC) with UV detection at 285 nm. A Waters Acquity UPLC System (Waters Corporation, Milford, Mass., USA), consisting of a binary pump, an autosampler, a column heater, and a photodiode array detector was used. An Acquity UPLC C18 1.7 μm, 2.1 mm i.d.×50 mm column was used. Elution was at 0.5 mL/min with 70% A/30% B for 2 min, followed by a 10-min linear gradient to 10% A/90% B, then 70% A/30% B for 2 min, where A=0.1% formic acid/water and B=0.1% formic acid/acetonitrile. Monitoring was by UV detection at 285 nm. Calibration curves for each compound were prepared in control plasma containing internal standard. The concentrations in the PK samples were obtained using peak area ratio to the internal standard and the calibration curve regression analysis parameters. The methods were linear from 0.01 to 100 μg/mL; coefficients of determination R^2 range from 0.98 to 0.99.
The area under the curve (AUC), clearance (CL), volume of distribution (Vd), and terminal half-life were calculated using Phoenix WinNonlin 6.3 (Certara LP, St Louis, Mo., USA) noncompartmental analysis using uniform weighing. Half-lives were estimated from the linear portion of the initial or terminal phase of the concentration-time data by linear regression, where the slope of the line was the rate constant k and t1/2=ln 2/k.

[13] = mecA positive, linezolid-resistant, Tables 1 and 5, read-out: MIC
[14] = quality-control strain, Tables 1 and 5, read-out: MIC
[15] = vancomycin-resistant MRSA (vanA) isolate from Pennsylvania, Tables 1 and 5, read-out: MIC
[16] = vancomycin-susceptible clinical isolate, Tables 1 and 5, read-out: MIC

SMILES	MIC [1, 13] [µg/mL]	MIC ([2]; Tables 1 and 5, read-out: MIC) [µg/mL]	MIC [3] [µg/mL]	MIC [4, 14] [µg/mL]	MIC [5, 15] [µg/mL]	MIC [6, 13] [µg/mL]	MIC [7, 16] [µg/mL]	also measured
Oc1ccc(-c2nc(-c3ccc(Oc4ccc(C(F)(F)F)cc4)cc3)no2)cc1 [Compound 1]	2 (≈ 5.02 µM)	2 (≈ 5.02 µM)	2 (≈ 5.02 µM)	2 (≈ 5.02 µM)	2 (≈ 5.02 µM)	2 (≈ 5.02 µM)	1 (≈ 2.51 µM)	t1/2abs [8]: 3.3 h
FC(F)(F)c1ccc(Oc2ccc(-c3noc(-c4n[nH]cc4Cl)n3)cc2)cc1 [Compound 60b, 5-(4-Chloro-1H-pyrazol-3-yl)-3-(4-(4-(trifluoromethyl)phenoxy)phenyl)-1,2,4-oxadiazole]	64 (≈ 157 µM)	> 128	> 128	> 128	0.5 to 1 (≈ 1.23 to 2.46 µM)		> 128	
Fc1ccc(Oc2ccc(-c3noc(-c4n[nH]cc4Cl)n3)cc2)cc1 [Compound 60c, 5-(4-Chloro-1H-pyrazol-3-yl)-3-(4-(4-fluorophenoxy)phenyl)-1,2,4-oxadiazole]	64 (≈ 179 µM)	> 128	> 128	> 128		2 (≈ 5.61 µM)	> 128	
CC(C)Nc1c[nH]nc1-c1nc(-c2ccc(Oc3ccc(C(F)(F)F)cc3)cc2)no1 [Compound 65b, N-Isopropyl-3-(3-(4-(4-(trifluoromethyl)phenoxy)phenyl)-1,2,4-oxadiazol-5-yl)-1H-pyrazol-4-amine]								MIC [1]: > 128 µg/mL; MIC [2]: > 128 µg/mL; MIC [4]: > 128 µg/mL; MIC ([5]; MRSA): 4 µg/mL (≈ 9.32 µM); MIC [6]: 2 µg/mL (≈ 4.66 µM); MIC [7]: > 128 µg/mL
C#Cc1c[nH]nc1-c1nc(-c2ccc(Oc3ccc(C(F)(F)F)cc3)cc2)no1 [Compound 66b, 5-(4-Ethynyl-1H-pyrazol-3-yl)-3-(4-(4-(trifluoromethyl)phenoxy)phenyl)-1,2,4-oxadiazole]	> 128	> 128	> 128	> 128	0.5 (≈ 1.26 µM)	32 (≈ 80.7 µM)		
FC(F)(F)c1ccc(Oc2ccc(-c3noc(-c4ccc5[nH]ccc5c4)n3)cc2)cc1 [Compound 75b, 5-(1H-Indol-5-yl)-3-(4-(4-(trifluoromethyl)phenoxy)phenyl)-1,2,4-oxadiazole]			16 (≈ 38 µM)					MBC, fold above the MIC [9]: 2 fold; MBC relative to MIC [10]: the same as the MIC value; MBC, fold above the MIC [11]: 2 fold; AUC0-24 h ([12]; 20 mg/kg iv, mice): 3140 µg·min/mL; AUC0-∞ ([12]; 20 mg/kg iv, mice): 3520 µg·min/mL; CL ([12]; 20 mg/kg iv, mice): 5.68 mL/min/kg; Vd ([12]; 20 mg/kg iv, mice): 4.73 L/kg; t1/2α ([12]; 20 mg/kg iv, mice): t1/2α = 0.54 min; t1/2β (terminal half-life) ([12]; 20 mg/kg iv, mice): 9.6 h; F (oral bioavailability) ([12]; 20 mg/kg po vs iv, mice): 97%; AUC0-24 h ([12]; 20 mg/kg po, mice): 3060 µg·min/mL; AUC0-∞ ([12]; 20 mg/kg po, mice): 4060 µg·min/mL; Cmax ([12]; 20 mg/kg po, mice): 2340 ng/mL; Tmax ([12]; 20 mg/kg po, mice): 6 h; t1/2dist ([12]; 20 mg/kg po, mice): t1/2dist = 15.9 h; t1/2elim (terminal half-life) ([12]; 20 mg/kg po, mice): 18.6 h; clearance, fold lower than 1 ([12]; 75b vs compound 1): 3 fold; volume of distribution, fold higher than 1 ([12]; 75b vs compound 1): 13 fold
